Measured values reported in US9345703B2, “Kappa opioid receptor effectors and uses thereof” (University of Kansas, priority 2011, dated 2016).

Tests used:
[1] = Plasma protein binding, mouse; format: in vitro ADME
Description: Plasma protein binding is a measure of a drug's efficiency to bind to the proteins within blood plasma. The less bound a drug is, the more efficiently it can traverse cell membranes or diffuse. Highly plasma protein bound rugs are confined to the vascular space, thereby having a relatively low volume of distribution. In contrast, drugs that remain largely unbound in plasma are generally available for distribution to other organs and tissues. In the instant case, the Chemotype I antagonist 1{3} was marginally available with 88.46% and 80.07% bound to 1 μM and 10 μM mouse plasma protein, respectively, and 93.96% and 88.54% bound to 1 μM and 10 μM human plasma protein, respectively.

[2] = in vitro; conditions: for Papp: PAMPA
Procedure: PAMPA is used as an in vitro model of passive, transcellular permeability. An artificial membrane immobilized on a filter is placed between a donor and acceptor compartment. At the start of the test, drug is introduced in the donor compartment (at various pH). Following the permeation period, the concentrations of compound in the donor compartment and acceptor compartment are measured using UV spectroscopy.

[3] = biological target: 5ht1e (Homo sapiens, UniProt P28566); assay: PDSP radioligand binding assay
Sequence of 5ht1e (P28566 whole entry, species assumed): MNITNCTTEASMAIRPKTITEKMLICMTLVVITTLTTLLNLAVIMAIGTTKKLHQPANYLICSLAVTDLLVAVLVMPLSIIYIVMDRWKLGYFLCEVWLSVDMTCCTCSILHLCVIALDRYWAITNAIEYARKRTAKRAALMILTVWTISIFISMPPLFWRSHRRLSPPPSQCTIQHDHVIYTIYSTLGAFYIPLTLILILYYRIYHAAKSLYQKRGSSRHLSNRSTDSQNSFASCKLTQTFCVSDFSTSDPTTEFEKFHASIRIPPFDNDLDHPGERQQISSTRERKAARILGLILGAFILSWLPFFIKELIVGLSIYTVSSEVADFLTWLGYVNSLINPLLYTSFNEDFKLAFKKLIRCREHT
Procedure: (§1) The compound was initially screened in radioligand binding assays at a constant concentration (10 μM) to identify possible activity of the compound. Results showing significant activity in the initial screen were selected for Ki determinations.
(§2) As a representative of the Chemotype II series, the MLPCN probe molecule 2{8} was subjected to a binding assay panel of 44 GPCR and other molecular targets by the Pyschoactive Drug Screening Program (PDSP) (Table 10). The compound was initially screened in a radioligand binding assay at a constant concentration (10 μM) to identify possible activity of the compound. Results showing significant activity in the initial screen were selected for Ki determinations.

[4] = biological target: Beta3 (Homo sapiens, UniProt P13945); assay: PDSP radioligand binding assay
Procedure: as §1, §2

[5] = biological target: BZP Rat Brain Site; assay: PDSP radioligand binding assay
Procedure: as §1, §2

[6] = biological target: H1 (Homo sapiens, UniProt P35367); assay: PDSP radioligand binding assay
Procedure: as §1, §2

[7] = biological target: M4 (Homo sapiens, UniProt P08173); assay: PDSP radioligand binding assay
Sequence of M4 (P08173 whole entry): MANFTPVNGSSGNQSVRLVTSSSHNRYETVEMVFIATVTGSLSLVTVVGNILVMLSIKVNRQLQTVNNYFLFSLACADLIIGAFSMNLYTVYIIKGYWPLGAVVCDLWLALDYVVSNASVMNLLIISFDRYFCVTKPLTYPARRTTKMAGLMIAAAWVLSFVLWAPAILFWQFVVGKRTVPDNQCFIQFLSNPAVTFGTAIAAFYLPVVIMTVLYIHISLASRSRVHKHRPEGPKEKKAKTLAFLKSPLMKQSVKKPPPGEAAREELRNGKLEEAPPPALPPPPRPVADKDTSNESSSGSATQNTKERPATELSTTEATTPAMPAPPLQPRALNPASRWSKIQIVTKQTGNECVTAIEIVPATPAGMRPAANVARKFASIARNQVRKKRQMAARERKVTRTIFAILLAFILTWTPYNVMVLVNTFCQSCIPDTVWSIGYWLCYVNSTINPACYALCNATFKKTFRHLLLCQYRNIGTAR
Procedure: as §1, §2

[8] = biological target: D4 (Homo sapiens, UniProt P21917); assay: PDSP radioligand binding assay
Procedure: as §1, §2

[9] = biological target: H2 (Homo sapiens, UniProt P25021); assay: PDSP radioligand binding assay
Procedure: as §1, §2

[10] = biological target: H4 (Homo sapiens, UniProt Q9H3N8); assay: PDSP radioligand binding assay
Sequence of H4 (Q9H3N8 whole entry): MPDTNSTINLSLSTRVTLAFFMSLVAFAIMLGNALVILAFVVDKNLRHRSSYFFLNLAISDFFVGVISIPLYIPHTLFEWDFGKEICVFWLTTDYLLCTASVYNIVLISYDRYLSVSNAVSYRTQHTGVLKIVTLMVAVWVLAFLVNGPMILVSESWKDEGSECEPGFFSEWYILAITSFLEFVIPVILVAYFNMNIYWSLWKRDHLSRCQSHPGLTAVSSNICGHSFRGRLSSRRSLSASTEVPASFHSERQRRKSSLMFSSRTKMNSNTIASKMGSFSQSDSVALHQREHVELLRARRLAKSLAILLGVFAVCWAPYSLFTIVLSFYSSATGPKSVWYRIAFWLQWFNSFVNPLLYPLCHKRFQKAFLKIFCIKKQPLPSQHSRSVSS
Procedure: as §1, §2

[11] = biological target: Beta2 (Homo sapiens, UniProt P07550); assay: PDSP radioligand binding assay
Procedure: as §1, §2

[12] = biological target: 5ht1b (Homo sapiens, UniProt P28222); assay: PDSP radioligand binding assay
Procedure: as §1, §2

[13] = biological target: 5ht3 (Homo sapiens, UniProt P46098); assay: PDSP radioligand binding assay
Procedure: as §1, §2

[14] = biological target: NET (Homo sapiens, UniProt P23975); assay: PDSP radioligand binding assay
Sequence of NET (P23975 whole entry): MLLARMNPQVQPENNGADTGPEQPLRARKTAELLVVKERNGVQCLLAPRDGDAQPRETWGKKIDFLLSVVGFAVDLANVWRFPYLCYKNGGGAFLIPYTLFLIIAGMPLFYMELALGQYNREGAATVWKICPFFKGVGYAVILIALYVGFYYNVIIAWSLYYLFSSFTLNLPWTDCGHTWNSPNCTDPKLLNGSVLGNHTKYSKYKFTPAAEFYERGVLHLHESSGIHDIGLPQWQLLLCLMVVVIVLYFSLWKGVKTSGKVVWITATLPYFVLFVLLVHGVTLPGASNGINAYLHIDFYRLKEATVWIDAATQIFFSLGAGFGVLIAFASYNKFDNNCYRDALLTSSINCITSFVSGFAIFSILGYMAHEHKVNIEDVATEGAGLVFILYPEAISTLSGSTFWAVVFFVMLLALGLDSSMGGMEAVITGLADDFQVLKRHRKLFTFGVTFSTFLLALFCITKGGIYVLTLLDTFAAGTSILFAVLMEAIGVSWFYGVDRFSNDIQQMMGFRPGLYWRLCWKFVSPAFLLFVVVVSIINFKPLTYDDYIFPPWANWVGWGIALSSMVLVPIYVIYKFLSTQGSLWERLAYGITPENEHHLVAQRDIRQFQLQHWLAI
Procedure: as §1, §2

[15] = biological target: D5 (Homo sapiens, UniProt P21918); assay: PDSP radioligand binding assay
Procedure: as §1, §2

[16] = biological target: Sigma1; assay: PDSP radioligand binding assay
Procedure: as §1, §2

[17] = biological target: 5ht2c (Homo sapiens, UniProt P28335); assay: PDSP radioligand binding assay
Procedure: as §1, §2

[18] = biological target: D2 (Homo sapiens, UniProt P14416); assay: PDSP radioligand binding assay
Sequence of D2 (P14416 whole entry): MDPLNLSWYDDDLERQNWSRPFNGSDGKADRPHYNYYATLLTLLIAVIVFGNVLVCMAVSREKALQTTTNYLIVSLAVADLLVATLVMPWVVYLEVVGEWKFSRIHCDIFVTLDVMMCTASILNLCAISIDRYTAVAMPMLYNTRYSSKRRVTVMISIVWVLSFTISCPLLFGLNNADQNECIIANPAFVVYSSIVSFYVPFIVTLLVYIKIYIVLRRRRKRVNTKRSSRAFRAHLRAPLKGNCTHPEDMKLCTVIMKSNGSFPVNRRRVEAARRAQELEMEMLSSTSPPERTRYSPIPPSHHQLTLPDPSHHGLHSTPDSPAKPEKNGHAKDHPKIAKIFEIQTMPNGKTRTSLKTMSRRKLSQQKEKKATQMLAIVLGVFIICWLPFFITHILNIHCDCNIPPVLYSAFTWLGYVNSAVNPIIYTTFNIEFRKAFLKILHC
Procedure: as §1, §2

[19] = biological target: 5ht5a (Homo sapiens, UniProt P47898); assay: PDSP radioligand binding assay
Sequence of 5ht5a (P47898 whole entry, species assumed): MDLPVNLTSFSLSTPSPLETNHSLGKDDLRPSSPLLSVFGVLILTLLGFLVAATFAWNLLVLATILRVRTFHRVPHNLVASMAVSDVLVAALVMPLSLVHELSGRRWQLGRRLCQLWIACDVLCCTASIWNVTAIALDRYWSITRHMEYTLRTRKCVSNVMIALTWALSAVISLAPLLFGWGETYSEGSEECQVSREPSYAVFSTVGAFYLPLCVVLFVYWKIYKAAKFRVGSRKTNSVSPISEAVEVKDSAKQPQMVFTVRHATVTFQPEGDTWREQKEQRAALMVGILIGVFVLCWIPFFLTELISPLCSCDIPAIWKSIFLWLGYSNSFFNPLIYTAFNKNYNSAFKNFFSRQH
Procedure: as §1, §2

[20] = biological target: D1 (Homo sapiens, UniProt P21728); assay: PDSP radioligand binding assay
Procedure: as §1, §2

[21] = biological target: Alpha2C (Homo sapiens, UniProt P18825); assay: PDSP radioligand binding assay
Sequence of Alpha2C (P18825 whole entry): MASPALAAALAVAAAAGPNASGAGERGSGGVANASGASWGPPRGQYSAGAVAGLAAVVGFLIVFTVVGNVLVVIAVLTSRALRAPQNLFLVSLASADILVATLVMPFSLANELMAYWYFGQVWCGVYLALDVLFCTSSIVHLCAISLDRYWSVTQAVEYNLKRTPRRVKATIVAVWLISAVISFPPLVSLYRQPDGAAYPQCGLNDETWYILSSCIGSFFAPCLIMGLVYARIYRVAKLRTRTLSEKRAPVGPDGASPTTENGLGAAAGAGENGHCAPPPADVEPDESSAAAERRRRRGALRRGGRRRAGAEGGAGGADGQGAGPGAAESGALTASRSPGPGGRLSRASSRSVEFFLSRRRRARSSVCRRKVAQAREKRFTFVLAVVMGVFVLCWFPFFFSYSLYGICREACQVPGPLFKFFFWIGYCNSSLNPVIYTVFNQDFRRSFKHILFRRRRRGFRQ
Procedure: as §1, §2

[22] = biological target: Sigma2 (Rattus norvegicus, UniProt Q5U3Y7); assay: PDSP radioligand binding assay
Sequence of Sigma2 (Q5U3Y7 whole entry): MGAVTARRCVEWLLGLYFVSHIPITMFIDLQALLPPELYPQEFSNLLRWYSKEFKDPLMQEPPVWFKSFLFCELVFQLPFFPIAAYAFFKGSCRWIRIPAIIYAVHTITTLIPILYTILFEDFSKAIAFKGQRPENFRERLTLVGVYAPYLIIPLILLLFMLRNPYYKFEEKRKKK
Procedure: as §1, §2

[23] = biological target: Alpha1B (Homo sapiens, UniProt P35368); assay: PDSP radioligand binding assay
Procedure: as §1, §2

[24] = biological target: GabaA; assay: PDSP radioligand binding assay
Procedure: as §1, §2

[25] = biological target: Alpha2B (Homo sapiens, UniProt P18089); assay: PDSP radioligand binding assay
Procedure: as §1, §2

[26] = biological target: 5ht7 (Homo sapiens, UniProt P34969); assay: PDSP radioligand binding assay
Sequence of 5ht7 (P34969 whole entry, species assumed): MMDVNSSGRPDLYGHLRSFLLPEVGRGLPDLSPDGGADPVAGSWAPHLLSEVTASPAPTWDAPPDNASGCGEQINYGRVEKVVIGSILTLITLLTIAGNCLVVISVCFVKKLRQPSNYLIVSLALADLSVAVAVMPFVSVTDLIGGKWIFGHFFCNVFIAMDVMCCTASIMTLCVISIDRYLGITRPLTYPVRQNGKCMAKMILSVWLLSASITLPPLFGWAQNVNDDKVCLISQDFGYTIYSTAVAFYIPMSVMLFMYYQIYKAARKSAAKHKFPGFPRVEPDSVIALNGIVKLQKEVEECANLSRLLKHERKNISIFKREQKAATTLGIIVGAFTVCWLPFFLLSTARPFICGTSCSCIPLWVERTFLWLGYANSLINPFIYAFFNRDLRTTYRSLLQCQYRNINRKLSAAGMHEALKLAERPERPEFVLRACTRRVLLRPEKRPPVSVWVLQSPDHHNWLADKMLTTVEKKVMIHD
Procedure: as §1, §2

[27] = biological target: Alpha2A (Homo sapiens, UniProt P08913); assay: PDSP radioligand binding assay
Sequence of Alpha2A (P08913 whole entry): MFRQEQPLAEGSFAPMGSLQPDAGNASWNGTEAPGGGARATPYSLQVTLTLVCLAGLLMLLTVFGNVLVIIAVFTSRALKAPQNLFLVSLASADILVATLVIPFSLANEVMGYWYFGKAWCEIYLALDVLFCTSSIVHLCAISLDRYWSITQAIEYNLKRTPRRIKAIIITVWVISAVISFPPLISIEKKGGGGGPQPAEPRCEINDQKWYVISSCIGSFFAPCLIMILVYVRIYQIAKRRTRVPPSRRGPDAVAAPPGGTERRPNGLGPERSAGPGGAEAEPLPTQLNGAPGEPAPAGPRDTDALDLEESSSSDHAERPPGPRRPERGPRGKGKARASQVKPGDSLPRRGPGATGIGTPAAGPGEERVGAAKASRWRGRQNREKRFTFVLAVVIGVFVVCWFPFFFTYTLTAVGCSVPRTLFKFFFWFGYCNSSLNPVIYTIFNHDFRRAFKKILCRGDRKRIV
Procedure: as §1, §2

[28] = biological target: 5ht2a (Homo sapiens, UniProt P28223); assay: PDSP radioligand binding assay
Procedure: as §1, §2

[29] = biological target: M1 (Homo sapiens, UniProt P11229); assay: PDSP radioligand binding assay
Sequence of M1 (P11229 whole entry): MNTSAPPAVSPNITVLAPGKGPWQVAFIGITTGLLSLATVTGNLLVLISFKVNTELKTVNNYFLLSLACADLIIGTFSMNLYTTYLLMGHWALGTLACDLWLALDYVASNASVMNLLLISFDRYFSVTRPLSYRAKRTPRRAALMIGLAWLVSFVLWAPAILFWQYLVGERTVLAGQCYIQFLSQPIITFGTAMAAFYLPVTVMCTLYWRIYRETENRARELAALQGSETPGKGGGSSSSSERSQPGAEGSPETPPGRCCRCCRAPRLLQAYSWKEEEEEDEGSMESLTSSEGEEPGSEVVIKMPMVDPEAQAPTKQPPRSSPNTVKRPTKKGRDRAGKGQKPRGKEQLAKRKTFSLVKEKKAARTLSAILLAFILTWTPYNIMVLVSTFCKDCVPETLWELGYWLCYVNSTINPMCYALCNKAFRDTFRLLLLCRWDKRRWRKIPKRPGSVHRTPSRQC
Procedure: as §1, §2

[30] = biological target: 5ht1a (Homo sapiens, UniProt P08908); assay: PDSP radioligand binding assay
Procedure: as §1, §2

[31] = biological target: M5 (Homo sapiens, UniProt P08912); assay: PDSP radioligand binding assay
Procedure: as §1, §2

[32] = biological target: 5ht6 (Homo sapiens, UniProt P50406); assay: PDSP radioligand binding assay
Procedure: as §1, §2

[33] = biological target: Alpha1A (Homo sapiens, UniProt P35348); assay: PDSP radioligand binding assay
Procedure: as §1, §2

[34] = Plasma stability, human; format: in vitro ADME
Description: (§3) Plasma stability is a measure of the stability of small molecules and peptides in plasma and is an important parameter that can strongly influence the in vivo efficacy of a test compound. Drug candidates are exposed in plasma to enzymatic processes (proteinases, esterases), and they can undergo intramolecular rearrangement or bind irreversibly (covalently) to proteins.

[35] = Plasma stability, mouse; format: in vitro ADME
Description: as §3

Which fraction unbound at 1 μM ([1]; plasma, mouse, 1 μM, read-out: bound to plasma protein (converted)) does the source give for `COc1ccc(N2CCN(CCCNC(=O)Cn3c(=O)c4cccn4c4c(C)ccnc43)CC2)cc1` [Compound 1{3}, N-(3-(4-(4-Methoxyphenyl)piperazin-1-yl)propyl)-2-(1-methyl-6-oxopyrido[2,3-e]pyrrolo[1,2-a]pyrazin-5(6H)-yl)acetamide] here?
The fraction unbound at 1 μM was 0.115.

And the fraction unbound at 10 μM ([1]; plasma, mouse, 10 μM, read-out: bound to plasma protein (converted))?
Its fraction unbound at 10 μM is 0.199.

What about the Papp ([2]; pH 5) of the same compound?
Its Papp is 27 ×10⁻⁶ cm/s.

And the Papp ([2]; pH 6.2)?
The Papp was 227 ×10⁻⁶ cm/s.

What about the Papp ([2]; pH 7.4) of the same compound?
Its Papp is 757 ×10⁻⁶ cm/s.

And the Ki ([3]; Table 5)?
The Ki was over 10 µM.

And the Ki ([4]; Table 5)?
Its Ki is over 10 µM.

What about the Ki ([5]; Table 5) of the same compound?
The Ki was over 10 µM.

What about the Ki ([6]; Table 5) of the same compound?
Its Ki is 0.454 µM.

And the Ki ([7]; Table 5)?
The Ki was over 10 µM.

What about the Ki ([8]; Table 5) of the same compound?
Its Ki is over 10 µM.

And the Ki ([9]; Table 5)?
The Ki was 3.5 µM.

What about the Ki ([10]; Table 5) of the same compound?
The Ki was over 10 µM.

And the Ki ([11]; Table 5)?
The Ki was over 10 µM.

And the Ki ([12]; Table 5)?
The Ki was over 10 µM.

And the Ki ([13]; Table 5)?
The Ki was over 10 µM.

And the Ki ([14]; Table 5)?
Its Ki is 0.685 µM.

And the Ki ([15]; Table 5)?
The Ki was over 10 µM.

What about the Ki ([16]; Table 5) of the same compound?
The Ki was over 10 µM.

And the Ki ([17]; Table 5)?
Its Ki is over 10 µM.

And the Ki ([18]; Table 5)?
The Ki was 1.35 µM.

What about the Ki ([19]; Table 5) of the same compound?
Its Ki is over 10 µM.

And the Ki ([20]; Table 5)?
Its Ki is over 10 µM.

What about the Ki ([21]; Table 5) of the same compound?
The Ki was 0.694 µM.

What about the Ki ([22]; Table 5) of the same compound?
The Ki was over 10 µM.

And the Ki ([23]; Table 5)?
The Ki was over 10 µM.

And the Ki ([24]; Table 5)?
The Ki was over 10 µM.

And the Ki ([25]; Table 5)?
Its Ki is 7.7 µM.

And the Ki ([26]; Table 5)?
Its Ki is over 10 µM.

And the Ki ([27]; Table 5)?
Its Ki is over 10 µM.

What about the Ki ([28]; Table 5) of the same compound?
Its Ki is over 10 µM.

And the Ki ([29]; Table 5)?
Its Ki is over 10 µM.

And the Ki ([30]; Table 5)?
The Ki was over 10 µM.

And the Ki ([31]; Table 5)?
Its Ki is 6.4 µM.

What about the Ki ([32]; Table 5) of the same compound?
Its Ki is over 10 µM.

And the Ki ([33]; Table 5)?
The Ki was over 10 µM.

And the “plasma stability, remaining” value ([34]; human, plasma, 3 h)?
The value was 100%.

What about the “plasma stability, remaining” value ([35]; mouse, plasma, 3 h) of the same compound?
The value was 100%.

Which bound to plasma ([1]; mouse plasma) does the source give for `Clc1ccc(CSc2nnc(-c3ccccn3)n2Cc2ccco2)cc1Cl` [Compound 2{8}] here?
The bound to plasma was over 99%.

And the PAMPA permeability ([2]; donor pH 5)?
The PAMPA permeability was 1793 ×10⁻⁶ cm/s.

What about the PAMPA permeability ([2]; donor pH 6.2) of the same compound?
The PAMPA permeability was 1921 ×10⁻⁶ cm/s.

And the PAMPA permeability ([2]; donor pH 7.4)?
Its PAMPA permeability is 2089 ×10⁻⁶ cm/s.

And the Ki ([3]; Table 10)?
Its Ki is over 10 µM.

And the Ki ([4]; Table 10)?
Its Ki is 7.31 µM.

What about the Ki ([5]; Table 10) of the same compound?
The Ki was over 10 µM.

What about the Ki ([6]; Table 10) of the same compound?
Its Ki is over 10 µM.

And the Ki ([7]; Table 10)?
The Ki was over 10 µM.

What about the Ki ([8]; Table 10) of the same compound?
The Ki was over 10 µM.

What about the Ki ([9]; Table 10) of the same compound?
The Ki was over 10 µM.

And the Ki ([10]; Table 10)?
The Ki was over 10 µM.

And the Ki ([11]; Table 10)?
Its Ki is over 10 µM.

What about the Ki ([12]; Table 10) of the same compound?
The Ki was over 10 µM.

And the Ki ([13]; Table 10)?
Its Ki is over 10 µM.

And the Ki ([14]; Table 10)?
Its Ki is 5.87 µM.

What about the Ki ([15]; Table 10) of the same compound?
Its Ki is 7.02 µM.

What about the Ki ([16]; Table 10) of the same compound?
Its Ki is over 10 µM.

What about the Ki ([17]; Table 10) of the same compound?
The Ki was over 10 µM.

And the Ki ([18]; Table 10)?
Its Ki is over 10 µM.

What about the Ki ([19]; Table 10) of the same compound?
The Ki was 4.99 µM.

And the Ki ([20]; Table 10)?
The Ki was 1.8 µM.

What about the Ki ([21]; Table 10) of the same compound?
The Ki was 9.6 µM.

What about the Ki ([22]; Table 10) of the same compound?
The Ki was 2.91 µM.

What about the Ki ([23]; Table 10) of the same compound?
Its Ki is over 10 µM.

What about the Ki ([24]; Table 10) of the same compound?
The Ki was over 10 µM.

And the Ki ([25]; Table 10)?
The Ki was 5.53 µM.

What about the Ki ([26]; Table 10) of the same compound?
The Ki was over 10 µM.

What about the Ki ([27]; Table 10) of the same compound?
The Ki was over 10 µM.

And the Ki ([28]; Table 10)?
Its Ki is 3.79 µM.

What about the Ki ([29]; Table 10) of the same compound?
Its Ki is over 10 µM.

And the Ki ([30]; Table 10)?
Its Ki is over 10 µM.

What about the Ki ([31]; Table 10) of the same compound?
The Ki was 4.42 µM.

What about the Ki ([32]; Table 10) of the same compound?
Its Ki is over 10 µM.

And the Ki ([33]; Table 10)?
Its Ki is over 10 µM.

What about the “plasma stability, remaining” value ([34]; human plasma, 3 hours) of the same compound?
Its value is 100%.

And the “plasma stability, remaining” value ([35]; mouse plasma, 3 hours)?
Its value is 100%.
